Laboratory results as given in US20020137929A1, “1 - (3-heterocyclylphenyl) isothiourea, -isourea, -guanidine and -amidine herbicidal agents” (Intellectual Property Department, BASF Aktiengesellschaft, priority 1998, published 2002).

How the values were obtained:
MOOVA (Monochoria) = test: Preemergence weed control under flooded paddy conditions; assay type: in vivo, Monochoria vaginalis; conditions: rated 3-4 weeks after treatment
Outline: (§1)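 Seeds or propagules sown in top 0.5 cm of silt loam soil, flooded 1.5 to 3 cm above surface throughout. Compound in 50/50 v/v aqueous/acetone pipetted into flood water at about 0.0313 to 0.500 kg/ha. Visual 0-9 rating versus control after three to four weeks in greenhouse.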

CYPIR (Rice Flatsedge) [1] = test: Postemergence weed control under flooded paddy conditions; assay type: in vivo, Cyperus iria; conditions: postemergence weeds
Outline: (§2)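 With weeds 3 to 5 cm tall and rice at the 1.5 to 2.5 leaf stage, containers were flooded and water held 1.5 to 3 cm above soil. Compounds in 50/50 v/v aqueous/acetone went into the flood water at about 0.0313 to 0.500 kg/ha a.i. Effects were visually rated 0–9 against controls after three to four weeks in the greenhouse.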

[2] = system: SAGPY (Arrowhead (Pygmaea)); test: as above; assay type: in vivo, Sagittaria pygmaea; conditions: postemergence weeds
Outline: as §2

ZEAMX (Corn, Field) = test: Preemergence herbicidal evaluation; assay type: in vivo, Zea mays; conditions: rated 4-5 weeks after treatment; for ZEAMX rating: preemergence, 0-9 scale
Outline: (§3)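 Scores (0–9) reflect visual comparison with control plants for stand, vigor, malformation, size and chlorosis. Compound was applied to the soil after sowing, before emergence, as an aqueous acetone spray (about 0.0156–0.500 kg/ha), and cups were kept in a greenhouse for 4–5 weeks.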

ECHCG (Barnyardgrass) = test: Postemergence herbicidal evaluation; assay type: in vivo, Echinochloa crus-galli; conditions: postemergence
Outline: (§4)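 Seedlings grown about two weeks were sprayed at 40 psi with compound dispersed in 50/50 acetone/water plus 0.5% TWEEN 20, at about 0.0156 to 0.500 kg/ha. Plants were kept in the greenhouse and scored 4–5 weeks later on a 0–9 visual scale against untreated controls.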

GALAP (Galium) = test: Postemergence herbicidal evaluation; assay type: in vivo, Galium aparine; conditions: postemergence
Outline: as §4

CYPSE (Flatsedge) = test: Postemergence weed control under flooded paddy conditions; assay type: in vivo, Cyperus serotinus; conditions: postemergence weeds
Outline: as §2

[3] = system: ECHORC (Watergrass (Calif.)); test: Preemergence weed control under flooded paddy conditions; assay type: in vivo, Echinochloa oryzoides; conditions: rated 3-4 weeks after treatment
Outline: as §1

SETVI (Foxtail, Green) = test: Postemergence herbicidal evaluation; assay type: in vivo, Setaria viridis; conditions: postemergence
Outline: as §4

[4] = system: IPOHE (Morningglory, Ivyleaf); test: Preemergence herbicidal evaluation; assay type: in vivo, Ipomoea hederacea; conditions: rated 4-5 weeks after treatment; for IPOHE rating: preemergence, 0-9 scale
Outline: as §3

[5] = system: TRZAWR (Wheat, Winter, cv Riband); test: Preemergence herbicidal evaluation; assay type: in vivo, Triticum aestivum; conditions: rated 4-5 weeks after treatment; for TRZAWR rating: preemergence, 0-9 scale
Outline: as §3

ABUTH (Velvetleaf) = test: Postemergence herbicidal evaluation; assay type: in vivo, Abutilon theophrasti; conditions: postemergence
Outline: as §4

ORYSAT (Rice, Tebonnet) = test: Postemergence herbicidal evaluation; assay type: in vivo, Oryza sativa, (L.) Tebonnet; conditions: postemergence
Outline: as §4

CYPIR (Rice Flatsedge) [6] = test: Preemergence weed control under flooded paddy conditions; assay type: in vivo, Cyperus iria; conditions: rated 3-4 weeks after treatment
Outline: as §1

[7] = rate 0.1160 kg/ha, 3-4 weeks after treatment
[8] = rate 0.2310 kg/ha, 3-4 weeks after treatment
[9] = rate 0.4630 kg/ha, 3-4 weeks after treatment
[10] = Rate 0.0313 kg/ha, rated 3 to 4 weeks after treatment
[11] = Rate 0.0625 kg/ha, rated 3 to 4 weeks after treatment
[12] = Rate 0.1250 kg/ha, rated 3 to 4 weeks after treatment
[13] = Rate 0.2500 kg/ha, rated 3 to 4 weeks after treatment
[14] = Rate 0.5000 kg/ha, rated 3 to 4 weeks after treatment

CCOC(=O)CN1C(=O)C(=C2CCCC2)SC1=Nc1cc(-n2c(=O)cc(C(F)(F)F)n(C)c2=O)c(F)cc1Cl [Compound 18, Ethyl 2-{{2-chloro-5-[3,6-dihydro-3-methyl-2,6-dioxo-4-(trifluoromethyl)-1(2H)-pyrimidinyl]-4-fluorophenyl}imino}-5-cyclopentylidene-4-oxo-3-thiazolidineacetate]
Herbicidal rating MOOVA (MOOVA (Monochoria); 0.1160 kg/ha): 9.0 | Herbicidal rating MOOVA (MOOVA (Monochoria); 0.2310 kg/ha): 9.0 | Herbicidal rating MOOVA (MOOVA (Monochoria); 0.4630 kg/ha): 9.0 | Herbicidal rating CYPIR (CYPIR (Rice Flatsedge) [1]; [7]): 0.0 | Herbicidal rating CYPIR (CYPIR (Rice Flatsedge) [1]; [8]): 0.0 | Herbicidal rating CYPIR (CYPIR (Rice Flatsedge) [1]; [9]): 0.0 | Herbicidal rating SAGPY [2, 7]: 0.0 | Herbicidal rating SAGPY [2, 8]: 0.0 | Herbicidal rating SAGPY [2, 9]: 6.0 | ZEAMX preemergence herbicidal rating (ZEAMX (Corn, Field); rate 0.1250 kg/ha): 0.0 | ZEAMX preemergence herbicidal rating (ZEAMX (Corn, Field); rate 0.2500 kg/ha): 0.0 | ECHCG herbicidal rating (ECHCG (Barnyardgrass); rate 0.0158 kg/ha): 1.0 | ECHCG herbicidal rating (ECHCG (Barnyardgrass); rate 0.0315 kg/ha): 1.0 | ECHCG herbicidal rating (ECHCG (Barnyardgrass); rate 0.0630 kg/ha): 2.0 | GALAP herbicidal rating (GALAP (Galium); rate 0.0158 kg/ha): 2.0 | GALAP herbicidal rating (GALAP (Galium); rate 0.0315 kg/ha): 5.0 | GALAP herbicidal rating (GALAP (Galium); rate 0.0630 kg/ha): 6.0 | Herbicidal rating CYPSE (CYPSE (Flatsedge); [7]): 0.0 | Herbicidal rating CYPSE (CYPSE (Flatsedge); [8]): 0.0 | Herbicidal rating CYPSE (CYPSE (Flatsedge); [9]): 4.0 | Herbicidal rating ECHORC ([3]; 0.1160 kg/ha): 7.0 | Herbicidal rating ECHORC ([3]; 0.2310 kg/ha): 7.0 | Herbicidal rating ECHORC ([3]; 0.4630 kg/ha): 7.0 | SETVI herbicidal rating (SETVI (Foxtail, Green); rate 0.0158 kg/ha): 0.0 | SETVI herbicidal rating (SETVI (Foxtail, Green); rate 0.0315 kg/ha): 1.0 | SETVI herbicidal rating (SETVI (Foxtail, Green); rate 0.0630 kg/ha): 6.0 | IPOHE preemergence herbicidal rating ([4]; rate 0.1250 kg/ha): 0.0 | IPOHE preemergence herbicidal rating ([4]; rate 0.2500 kg/ha): 1.0 | TRZAWR preemergence herbicidal rating ([5]; rate 0.1250 kg/ha): 0.0 | TRZAWR preemergence herbicidal rating ([5]; rate 0.2500 kg/ha): 0.0 | ABUTH herbicidal rating (ABUTH (Velvetleaf); rate 0.0158 kg/ha): 9.0 | ABUTH herbicidal rating (ABUTH (Velvetleaf); rate 0.0315 kg/ha): 9.0 | ABUTH herbicidal rating (ABUTH (Velvetleaf); rate 0.0630 kg/ha): 9.0 | ORYSAT herbicidal rating (ORYSAT (Rice, Tebonnet); rate 0.0158 kg/ha): 2.0 | ORYSAT herbicidal rating (ORYSAT (Rice, Tebonnet); rate 0.0315 kg/ha): 1.5 | ORYSAT herbicidal rating (ORYSAT (Rice, Tebonnet); rate 0.0630 kg/ha): 1.5 | Herbicidal rating CYPIR (CYPIR (Rice Flatsedge) [6]; 0.1160 kg/ha): 0.0 | Herbicidal rating CYPIR (CYPIR (Rice Flatsedge) [6]; 0.2310 kg/ha): 0.0 | Herbicidal rating CYPIR (CYPIR (Rice Flatsedge) [6]; 0.4630 kg/ha): 0.0

CCOC(=O)CN1C(=O)C(CC(=O)OC(C)C(=O)OCC)S/C1=N/c1cc(-n2c(=O)cc(C(F)(F)F)n(C)c2=O)c(F)cc1Cl (stereo not shown) [Compound 87]
MOOVA herbicidal effect rating (MOOVA (Monochoria); 0.0313 kg/ha): 9.0 | MOOVA herbicidal effect rating (MOOVA (Monochoria); 0.0625 kg/ha): 9.0 | MOOVA herbicidal effect rating (MOOVA (Monochoria); 0.1250 kg/ha): 9.0 | MOOVA herbicidal effect rating (MOOVA (Monochoria); 0.2500 kg/ha): 9.0 | MOOVA herbicidal effect rating (MOOVA (Monochoria); 0.5000 kg/ha): 9.0 | Herbicidal rating CYPIR (CYPIR (Rice Flatsedge) [1]; [10]): 5.0 | Herbicidal rating CYPIR (CYPIR (Rice Flatsedge) [1]; [11]): 5.0 | Herbicidal rating CYPIR (CYPIR (Rice Flatsedge) [1]; [12]): 5.0 | Herbicidal rating CYPIR (CYPIR (Rice Flatsedge) [1]; [13]): 5.0 | Herbicidal rating CYPIR (CYPIR (Rice Flatsedge) [1]; [14]): 7.0 | Herbicidal rating SAGPY [2, 10]: 0.0 | Herbicidal rating SAGPY [2, 11]: 4.0 | Herbicidal rating SAGPY [2, 12]: 4.0 | Herbicidal rating SAGPY [2, 13]: 5.0 | Herbicidal rating SAGPY [2, 14]: 7.0 | ZEAMX rating (ZEAMX (Corn, Field); 0.1250 kg/ha): 0.0 | ZEAMX rating (ZEAMX (Corn, Field); 0.2500 kg/ha): 0.0 | ZEAMX rating (ZEAMX (Corn, Field); 0.5000 kg/ha): 1.0 | ECHCG herbicidal rating (ECHCG (Barnyardgrass); rate 0.0156 kg/ha): 0.0 | ECHCG herbicidal rating (ECHCG (Barnyardgrass); rate 0.0313 kg/ha): 0.0 | ECHCG herbicidal rating (ECHCG (Barnyardgrass); rate 0.0625 kg/ha): 2.0 | ECHCG herbicidal rating (ECHCG (Barnyardgrass); rate 0.1250 kg/ha): 9.0 | ECHCG herbicidal rating (ECHCG (Barnyardgrass); rate 0.2500 kg/ha): 9.0 | GALAP herbicidal rating (GALAP (Galium); rate 0.0156 kg/ha): 0.0 | GALAP herbicidal rating (GALAP (Galium); rate 0.0313 kg/ha): 0.0 | GALAP herbicidal rating (GALAP (Galium); rate 0.0625 kg/ha): 1.0 | GALAP herbicidal rating (GALAP (Galium); rate 0.1250 kg/ha): 1.0 | GALAP herbicidal rating (GALAP (Galium); rate 0.2500 kg/ha): 3.0 | Herbicidal rating CYPSE (CYPSE (Flatsedge); [10]): 0.0 | Herbicidal rating CYPSE (CYPSE (Flatsedge); [11]): 0.0 | Herbicidal rating CYPSE (CYPSE (Flatsedge); [12]): 5.0 | Herbicidal rating CYPSE (CYPSE (Flatsedge); [13]): 5.0 | Herbicidal rating CYPSE (CYPSE (Flatsedge); [14]): 5.0 | ECHORC herbicidal effect rating ([3]; 0.0313 kg/ha): 0.0 | ECHORC herbicidal effect rating ([3]; 0.0625 kg/ha): 0.0 | ECHORC herbicidal effect rating ([3]; 0.1250 kg/ha): 2.0 | ECHORC herbicidal effect rating ([3]; 0.2500 kg/ha): 3.0 | ECHORC herbicidal effect rating ([3]; 0.5000 kg/ha): 3.0 | SETVI herbicidal rating (SETVI (Foxtail, Green); rate 0.0156 kg/ha): 0.0 | SETVI herbicidal rating (SETVI (Foxtail, Green); rate 0.0313 kg/ha): 0.0 | SETVI herbicidal rating (SETVI (Foxtail, Green); rate 0.0625 kg/ha): 2.0 | SETVI herbicidal rating (SETVI (Foxtail, Green); rate 0.1250 kg/ha): 7.0 | SETVI herbicidal rating (SETVI (Foxtail, Green); rate 0.2500 kg/ha): 7.0 | IPOHE rating ([4]; 0.1250 kg/ha): 1.0 | IPOHE rating ([4]; 0.2500 kg/ha): 5.0 | IPOHE rating ([4]; 0.5000 kg/ha): 6.0 | TRZAWR rating ([5]; 0.1250 kg/ha): 0.0 | TRZAWR rating ([5]; 0.2500 kg/ha): 0.0 | TRZAWR rating ([5]; 0.5000 kg/ha): 1.0 | ABUTH herbicidal rating (ABUTH (Velvetleaf); rate 0.0156 kg/ha): 2.0 | ABUTH herbicidal rating (ABUTH (Velvetleaf); rate 0.0313 kg/ha): 4.0 | ABUTH herbicidal rating (ABUTH (Velvetleaf); rate 0.0625 kg/ha): 9.0 | ABUTH herbicidal rating (ABUTH (Velvetleaf); rate 0.1250 kg/ha): 9.0 | ABUTH herbicidal rating (ABUTH (Velvetleaf); rate 0.2500 kg/ha): 9.0 | ORYSAT herbicidal rating (ORYSAT (Rice, Tebonnet); rate 0.0156 kg/ha): 0.0 | ORYSAT herbicidal rating (ORYSAT (Rice, Tebonnet); rate 0.0313 kg/ha): 0.5 | ORYSAT herbicidal rating (ORYSAT (Rice, Tebonnet); rate 0.0625 kg/ha): 1.0 | ORYSAT herbicidal rating (ORYSAT (Rice, Tebonnet); rate 0.1250 kg/ha): 1.5 | ORYSAT herbicidal rating (ORYSAT (Rice, Tebonnet); rate 0.2500 kg/ha): 4.0 | CYPIR herbicidal effect rating (CYPIR (Rice Flatsedge) [6]; 0.0313 kg/ha): 5.0 | CYPIR herbicidal effect rating (CYPIR (Rice Flatsedge) [6]; 0.0625 kg/ha): 5.0 | CYPIR herbicidal effect rating (CYPIR (Rice Flatsedge) [6]; 0.1250 kg/ha): 5.0 | CYPIR herbicidal effect rating (CYPIR (Rice Flatsedge) [6]; 0.2500 kg/ha): 5.0 | CYPIR herbicidal effect rating (CYPIR (Rice Flatsedge) [6]; 0.5000 kg/ha): 7.0
